These results are taken from article PMC6874179, “Development of Macrocycle Kinase Inhibitors for ALK2 Using Fibrodysplasia Ossificans Progressiva‐Derived Endothelial Cells” (JBMR Plus, 2019).

The target in one assay is T1, caALK1 (Homo sapiens, UniProt P37023, Q201D).
T1 construct: expressed in transfected cells; host or cells: C2C12 murine myofibroblast cells
Kind of assay: BRE-LUC with constitutive active ALK1 in C2C12 cells. The note with it: compound 0.5μM 16 hours. It is filed as cell-based. How it is done: (§1) Compounds were added for 16 hours at 0.5μM before luciferase activity was measured.
(§2) For luciferase reporter assays, cells were seeded in 24-well plates and transfected with DharmaFECT Duo (Fisher Scientific, Landsmeer, The Netherlands), following the recommendations of the manufacturer. 48 hours after transfection the cells were harvested and lysed. […] Each transfection mixture was equalized with empty vector when necessary and every experiment was performed in triplicate.

The next assay concerns caALK6. Kind of assay: BRE-LUC with constitutive active ALK6 in C2C12 cells. The note with it: compound 0.5μM 16 hours. The class given is cell-based. On the procedure: as §1, §2
In the next assay the target is T2, NUAK2 (Homo sapiens, UniProt Q9H093).
T2 construct: purchased DiscoverX
T2 sequence (Q9H093 whole entry): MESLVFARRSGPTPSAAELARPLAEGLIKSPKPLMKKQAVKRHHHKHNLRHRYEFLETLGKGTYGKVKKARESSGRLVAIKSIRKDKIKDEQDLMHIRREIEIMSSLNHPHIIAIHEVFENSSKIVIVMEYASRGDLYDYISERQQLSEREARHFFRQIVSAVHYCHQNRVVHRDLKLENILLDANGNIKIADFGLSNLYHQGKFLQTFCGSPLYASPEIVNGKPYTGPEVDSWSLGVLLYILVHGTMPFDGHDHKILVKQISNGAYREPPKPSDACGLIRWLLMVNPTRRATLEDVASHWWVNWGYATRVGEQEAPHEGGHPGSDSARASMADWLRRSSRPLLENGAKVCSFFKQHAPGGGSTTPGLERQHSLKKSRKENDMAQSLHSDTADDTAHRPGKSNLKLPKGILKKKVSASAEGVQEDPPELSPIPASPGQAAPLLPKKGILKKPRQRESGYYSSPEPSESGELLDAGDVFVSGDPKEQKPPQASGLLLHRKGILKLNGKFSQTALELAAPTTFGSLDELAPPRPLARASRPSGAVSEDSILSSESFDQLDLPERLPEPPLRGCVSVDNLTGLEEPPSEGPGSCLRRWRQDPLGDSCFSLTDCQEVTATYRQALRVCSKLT
Kind of assay: Proqinase Kinase profiling. The note with it: read-out: % inhibition at 100nM. It is filed as biochemical.

The next assay has as its target T3, STK3 (Homo sapiens, UniProt Q13188).
T3 construct: purchased DiscoverX
The assay can be described thus: Proqinase Kinase profiling. It is filed as biochemical. The note with it: read-out: % inhibition at 100nM.

The next assay has as its target T4, LRRK2 (Homo sapiens, UniProt Q5S007).
T4 construct: purchased DiscoverX
The assay can be described thus: Proqinase Kinase profiling. It is filed as biochemical. The note with it: read-out: % inhibition at 100nM.

Another assay has as its target T5, PKN2 (Homo sapiens, UniProt Q16513).
T5 construct: purchased DiscoverX
Kind of assay: Proqinase Kinase profiling. It is filed as biochemical. The conditions noted are these: read-out: % inhibition at 100nM.

A further assay has as its target T6, DDR2_N456S (Homo sapiens, UniProt Q16832, N456S).
T6 construct: purchased DiscoverX
Kind of assay: Proqinase Kinase profiling. It is filed as biochemical. The note with it: read-out: % inhibition at 100nM.

The target of another assay is T7, DDR2_T654M (Homo sapiens, UniProt Q16832, T654M).
T7 construct: purchased DiscoverX
Kind of assay: Proqinase Kinase profiling. The note with it: read-out: % inhibition at 100nM. The class given is biochemical.

The target in another assay is T8, MAP2K4 (Homo sapiens, UniProt P45985).
T8 construct: purchased DiscoverX
The assay can be described thus: Proqinase Kinase profiling. It is filed as biochemical. The note with it: read-out: % inhibition at 100nM.

The target in another assay is T9, MAP2K5 (Homo sapiens, UniProt Q13163).
T9 construct: purchased DiscoverX
Kind of assay: Proqinase Kinase profiling. It is filed as biochemical. The conditions noted are these: read-out: % inhibition at 100nM.

A further assay addresses T10, TTBK2 (Homo sapiens, UniProt Q6IQ55).
T10 construct: purchased DiscoverX
Kind of assay: Proqinase Kinase profiling. The conditions noted are these: read-out: % inhibition at 100nM. The class given is biochemical.

In another assay the target is T11, BUB1B (Homo sapiens, UniProt O60566).
T11 construct: purchased DiscoverX
Kind of assay: Proqinase Kinase profiling. It is filed as biochemical. The note with it: read-out: % inhibition at 100nM.

The target in the next assay is T12, EPHA6 (Homo sapiens, UniProt Q9UF33).
T12 construct: purchased DiscoverX
The assay can be described thus: Proqinase Kinase profiling. It is filed as biochemical. The note with it: read-out: % inhibition at 100nM.

In another assay the target is T13, PKMYT1 (Homo sapiens, UniProt Q99640).
T13 construct: purchased DiscoverX
Kind of assay: Proqinase Kinase profiling. The class given is biochemical. The conditions noted are these: read-out: % inhibition at 100nM.

Another assay deals with T14, PKN3 (Homo sapiens, UniProt Q6P5Z2).
T14 construct: purchased DiscoverX
Kind of assay: Proqinase Kinase profiling. It is filed as biochemical. The conditions noted are these: read-out: % inhibition at 100nM.

In the next assay the target is T15, ALK/NPM1 (Homo sapiens, UniProt P06748+Q9UM73).
T15 construct: purchased DiscoverX
Kind of assay: Proqinase Kinase profiling. It is filed as biochemical. The note with it: read-out: % inhibition at 100nM.

Another assay concerns the target T16, MAP2K7 (Homo sapiens, UniProt O14733).
T16 construct: purchased DiscoverX
Kind of assay: Proqinase Kinase profiling. It is filed as biochemical. The conditions noted are these: read-out: % inhibition at 100nM.

The next assay has as its target T17, TTBK1 (Homo sapiens, UniProt Q5TCY1).
T17 construct: purchased DiscoverX
The assay can be described thus: Proqinase Kinase profiling. The class given is biochemical. The note with it: read-out: % inhibition at 100nM.

The target of the next assay is T18, MLK4 (Homo sapiens, UniProt Q5TCX8).
T18 construct: purchased DiscoverX
Kind of assay: Proqinase Kinase profiling. It is filed as biochemical. The note with it: read-out: % inhibition at 100nM.

The target in a further assay is T19, BRSK2 (Homo sapiens, UniProt Q8IWQ3).
T19 construct: purchased DiscoverX
Kind of assay: Proqinase Kinase profiling. It is filed as biochemical. The note with it: read-out: % inhibition at 100nM.

Another assay deals with T20, CDC7_DBF4 (Homo sapiens, UniProt O00311).
T20 construct: purchased DiscoverX
Kind of assay: Proqinase Kinase profiling. It is filed as biochemical. The note with it: read-out: % inhibition at 100nM.

The next assay concerns the target T21, ALK_F1174L/NPM1 (Homo sapiens, UniProt P06748+Q9UM73, F1174L).
T21 construct: purchased DiscoverX
Kind of assay: Proqinase Kinase profiling. It is filed as biochemical. The conditions noted are these: read-out: % inhibition at 100nM.

A further assay addresses T22, VRK2 (Homo sapiens, UniProt Q86Y07).
T22 construct: purchased DiscoverX
The assay can be described thus: Proqinase Kinase profiling. The class given is biochemical. The note with it: read-out: % inhibition at 100nM.

The next assay deals with T23, SIK1 (Homo sapiens, UniProt P57059).
T23 construct: purchased DiscoverX
Kind of assay: Proqinase Kinase profiling. The class given is biochemical. The conditions noted are these: read-out: % inhibition at 100nM.

In the next assay the target is T24, CDK6_cyclinD3 (Homo sapiens, UniProt Q00534).
T24 construct: purchased DiscoverX
Kind of assay: Proqinase Kinase profiling. It is filed as biochemical. The conditions noted are these: read-out: % inhibition at 100nM.

In another assay the target is T25, CAMK2G (Homo sapiens, UniProt Q13555).
T25 construct: purchased DiscoverX
The assay can be described thus: Proqinase Kinase profiling. It is filed as biochemical. The conditions noted are these: read-out: % inhibition at 100nM.

The structures appear in SMILES notation.

T4 sequence (Q5S007 whole entry): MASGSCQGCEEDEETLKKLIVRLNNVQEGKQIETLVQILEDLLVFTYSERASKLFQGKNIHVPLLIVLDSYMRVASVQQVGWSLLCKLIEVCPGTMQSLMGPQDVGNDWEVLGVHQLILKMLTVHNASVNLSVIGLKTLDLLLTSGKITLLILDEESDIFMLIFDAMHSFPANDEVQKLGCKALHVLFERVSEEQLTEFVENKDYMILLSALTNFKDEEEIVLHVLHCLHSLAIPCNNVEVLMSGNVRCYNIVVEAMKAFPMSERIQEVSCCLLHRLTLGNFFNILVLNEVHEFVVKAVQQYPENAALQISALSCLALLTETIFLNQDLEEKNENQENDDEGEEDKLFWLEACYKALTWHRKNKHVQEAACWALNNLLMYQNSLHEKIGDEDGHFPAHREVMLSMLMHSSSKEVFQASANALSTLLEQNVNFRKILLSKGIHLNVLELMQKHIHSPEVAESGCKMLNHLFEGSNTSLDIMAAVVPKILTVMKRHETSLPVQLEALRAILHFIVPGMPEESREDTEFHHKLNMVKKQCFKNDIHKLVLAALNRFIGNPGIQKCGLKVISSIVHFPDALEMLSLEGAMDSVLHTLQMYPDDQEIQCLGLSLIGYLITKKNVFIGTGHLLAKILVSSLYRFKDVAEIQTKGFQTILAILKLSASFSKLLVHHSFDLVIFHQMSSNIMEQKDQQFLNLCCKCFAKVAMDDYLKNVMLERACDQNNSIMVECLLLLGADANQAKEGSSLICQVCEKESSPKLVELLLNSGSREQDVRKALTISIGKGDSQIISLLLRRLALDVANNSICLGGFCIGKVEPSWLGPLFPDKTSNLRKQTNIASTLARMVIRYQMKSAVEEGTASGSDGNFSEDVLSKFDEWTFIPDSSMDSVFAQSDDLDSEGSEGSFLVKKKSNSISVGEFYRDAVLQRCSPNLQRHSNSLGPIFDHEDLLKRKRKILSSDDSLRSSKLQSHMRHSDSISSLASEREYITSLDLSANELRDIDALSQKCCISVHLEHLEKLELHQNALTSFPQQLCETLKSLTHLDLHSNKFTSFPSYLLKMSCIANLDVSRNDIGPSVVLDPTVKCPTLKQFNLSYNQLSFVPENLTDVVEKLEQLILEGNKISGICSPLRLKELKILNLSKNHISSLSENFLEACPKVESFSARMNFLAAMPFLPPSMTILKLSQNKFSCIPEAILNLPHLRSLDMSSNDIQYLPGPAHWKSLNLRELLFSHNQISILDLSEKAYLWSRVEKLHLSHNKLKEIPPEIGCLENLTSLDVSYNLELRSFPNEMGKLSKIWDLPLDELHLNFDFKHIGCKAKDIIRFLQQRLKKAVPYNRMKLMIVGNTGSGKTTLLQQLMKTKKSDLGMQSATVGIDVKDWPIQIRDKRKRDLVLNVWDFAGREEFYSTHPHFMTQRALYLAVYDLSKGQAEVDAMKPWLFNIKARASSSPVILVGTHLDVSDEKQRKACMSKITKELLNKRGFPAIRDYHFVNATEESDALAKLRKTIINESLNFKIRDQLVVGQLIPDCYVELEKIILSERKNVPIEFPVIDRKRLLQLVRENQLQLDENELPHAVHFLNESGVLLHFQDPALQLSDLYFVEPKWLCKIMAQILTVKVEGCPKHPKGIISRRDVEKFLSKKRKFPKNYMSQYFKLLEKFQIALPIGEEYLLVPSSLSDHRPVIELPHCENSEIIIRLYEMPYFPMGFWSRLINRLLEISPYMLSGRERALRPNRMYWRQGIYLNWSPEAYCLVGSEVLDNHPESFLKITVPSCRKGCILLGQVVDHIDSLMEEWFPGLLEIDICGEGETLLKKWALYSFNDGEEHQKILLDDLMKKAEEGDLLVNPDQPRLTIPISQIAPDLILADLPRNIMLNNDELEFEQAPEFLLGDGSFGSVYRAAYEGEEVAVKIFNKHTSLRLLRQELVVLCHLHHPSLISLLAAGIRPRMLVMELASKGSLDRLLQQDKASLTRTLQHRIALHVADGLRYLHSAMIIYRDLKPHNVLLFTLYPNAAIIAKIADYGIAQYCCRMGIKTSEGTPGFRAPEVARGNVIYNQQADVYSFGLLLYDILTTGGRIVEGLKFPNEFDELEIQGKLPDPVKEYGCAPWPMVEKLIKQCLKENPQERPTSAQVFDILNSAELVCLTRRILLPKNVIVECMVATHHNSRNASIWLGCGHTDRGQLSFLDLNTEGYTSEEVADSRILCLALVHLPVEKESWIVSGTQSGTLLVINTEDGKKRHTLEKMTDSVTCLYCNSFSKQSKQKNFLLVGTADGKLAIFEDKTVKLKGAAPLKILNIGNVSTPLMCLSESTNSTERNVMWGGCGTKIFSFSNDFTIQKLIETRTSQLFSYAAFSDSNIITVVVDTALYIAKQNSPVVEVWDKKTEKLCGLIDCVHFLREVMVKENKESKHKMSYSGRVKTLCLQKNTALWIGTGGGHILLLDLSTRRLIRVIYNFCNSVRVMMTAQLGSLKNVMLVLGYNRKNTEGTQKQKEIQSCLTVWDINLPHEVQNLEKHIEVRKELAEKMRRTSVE
T3 sequence (Q13188 whole entry): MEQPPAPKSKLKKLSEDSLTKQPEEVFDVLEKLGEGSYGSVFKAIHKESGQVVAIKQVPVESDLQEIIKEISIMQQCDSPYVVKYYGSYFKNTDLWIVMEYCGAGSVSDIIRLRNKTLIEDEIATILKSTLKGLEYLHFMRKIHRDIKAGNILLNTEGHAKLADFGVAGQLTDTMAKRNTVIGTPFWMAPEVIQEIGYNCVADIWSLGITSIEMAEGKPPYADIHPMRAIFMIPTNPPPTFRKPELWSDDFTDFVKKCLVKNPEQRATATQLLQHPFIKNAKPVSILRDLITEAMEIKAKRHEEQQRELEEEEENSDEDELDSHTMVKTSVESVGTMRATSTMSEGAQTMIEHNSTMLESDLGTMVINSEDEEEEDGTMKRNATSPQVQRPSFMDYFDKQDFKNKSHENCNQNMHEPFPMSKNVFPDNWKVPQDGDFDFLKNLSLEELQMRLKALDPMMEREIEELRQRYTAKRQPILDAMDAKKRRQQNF
T5 sequence (Q16513 whole entry): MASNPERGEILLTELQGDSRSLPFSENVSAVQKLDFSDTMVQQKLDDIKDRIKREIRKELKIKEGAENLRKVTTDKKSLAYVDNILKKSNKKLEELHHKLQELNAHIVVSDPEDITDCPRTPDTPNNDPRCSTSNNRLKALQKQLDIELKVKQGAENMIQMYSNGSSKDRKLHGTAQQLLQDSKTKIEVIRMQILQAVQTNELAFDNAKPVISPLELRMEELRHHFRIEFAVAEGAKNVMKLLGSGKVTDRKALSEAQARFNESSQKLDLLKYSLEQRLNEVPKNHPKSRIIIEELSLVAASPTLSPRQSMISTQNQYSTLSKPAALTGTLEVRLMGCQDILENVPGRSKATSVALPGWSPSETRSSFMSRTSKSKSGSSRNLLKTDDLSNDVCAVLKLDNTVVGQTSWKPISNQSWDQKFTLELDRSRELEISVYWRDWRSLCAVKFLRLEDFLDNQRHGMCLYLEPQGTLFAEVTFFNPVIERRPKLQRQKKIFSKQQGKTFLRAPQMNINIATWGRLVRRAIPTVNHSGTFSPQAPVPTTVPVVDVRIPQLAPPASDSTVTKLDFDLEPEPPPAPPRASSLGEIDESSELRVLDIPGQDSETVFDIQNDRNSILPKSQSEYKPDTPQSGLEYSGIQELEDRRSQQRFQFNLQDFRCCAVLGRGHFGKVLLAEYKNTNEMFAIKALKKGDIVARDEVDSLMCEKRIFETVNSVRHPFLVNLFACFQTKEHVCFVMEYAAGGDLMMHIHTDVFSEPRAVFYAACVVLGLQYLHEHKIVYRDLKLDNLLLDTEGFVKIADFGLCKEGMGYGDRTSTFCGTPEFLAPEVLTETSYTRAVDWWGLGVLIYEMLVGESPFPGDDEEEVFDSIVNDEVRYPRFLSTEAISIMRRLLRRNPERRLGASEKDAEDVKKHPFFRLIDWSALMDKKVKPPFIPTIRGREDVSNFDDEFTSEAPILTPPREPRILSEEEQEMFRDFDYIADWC
T16 sequence (O14733 whole entry): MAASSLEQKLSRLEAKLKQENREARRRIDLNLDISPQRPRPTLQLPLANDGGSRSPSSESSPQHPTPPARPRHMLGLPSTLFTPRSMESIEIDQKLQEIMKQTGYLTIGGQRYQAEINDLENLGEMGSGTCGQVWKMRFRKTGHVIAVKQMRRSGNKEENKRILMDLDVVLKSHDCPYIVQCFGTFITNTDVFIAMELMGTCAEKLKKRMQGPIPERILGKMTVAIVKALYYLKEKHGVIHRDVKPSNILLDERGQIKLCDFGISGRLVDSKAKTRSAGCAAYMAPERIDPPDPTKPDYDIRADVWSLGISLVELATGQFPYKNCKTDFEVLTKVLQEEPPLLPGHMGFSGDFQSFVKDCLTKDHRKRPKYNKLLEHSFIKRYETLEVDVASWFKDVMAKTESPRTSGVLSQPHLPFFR

As to `c1ccc2c(-c3cnn4cc(-c5ccc(N6CCNCC6)cc5)cnc34)ccnc2c1` [LDN-193189, reference compound], the “Inhibition of caALK1-driven BRE-LUC activity” value at caALK1 was “significantly inhibited”. In addition, the “Inhibition of caALK6-driven BRE-LUC activity” value in the assay with caALK6 is listed as “significantly inhibited”.
Broadly, the inhibition is the drop in the measured response relative to a control, in per cent. In the case of `Clc1cc2cc(c1)-c1cnn3ccc(nc13)NCCOCCO2` [OD36], the inhibition at 0.1 µM at NUAK2 was determined as 9%; at STK3, 12%; at LRRK2, 53%; on PKN2, 8%.
Regarding `Cc1cc2cc(c1)-c1cnn3ccc(nc13)NCCNC(=O)CCN(C)C2` [OD52], the inhibition at 0.1 µM on DDR2_N456S is 33%; at DDR2_T654M it was 15%; on MAP2K4 it was 17%; on MAP2K5 it was -9%; at TTBK2 it was 4%; on BUB1B it was -10%. Further, the inhibition at 0.1 µM at EPHA6 is -12%; on PKMYT1 it was 6%; on NUAK2, -7%; on PKN3 it was 16%; at ALK/NPM1, -5%; at MAP2K7, 4%. Moreover, the inhibition at 0.1 µM on TTBK1 was 8%; at MLK4, -11%; on BRSK2 it was -13%; on CDC7_DBF4, 6%; on ALK_F1174L/NPM1, -16%; at VRK2, 6%. Moreover, the inhibition at 0.1 µM is -2% on SIK1; 5% at STK3; -7% on CDK6_cyclinD3; 10% on LRRK2; 10% at CAMK2G; -3% on PKN2.
